{"source": "paper PMC3672471", "about": "(The Biochemical journal, 2009)", "molecular_target": "β-lactoglobulin (Bos taurus, UniProt P02754)", "sequence (P02754 17-178)": "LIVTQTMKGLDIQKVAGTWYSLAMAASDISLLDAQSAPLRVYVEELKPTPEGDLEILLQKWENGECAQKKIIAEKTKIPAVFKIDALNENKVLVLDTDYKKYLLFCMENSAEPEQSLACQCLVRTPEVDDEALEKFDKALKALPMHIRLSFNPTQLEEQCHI", "experiment": "isothermal titration calorimetry", "assay_type": "binding", "data": [{"compound": "CCCCCC(=O)OC[C@@H](O)COP(=O)(O)O", "note": "[HHGP, 1-hexanoyl-2-hydroxy-sn-glycero-3-phosphate]", "values": [{"measurement": "Kd", "result": 1.4, "unit": "µM"}]}]}
